Assay results taken from US7803837B2, “4-oxo-4,5-dihydro-furan-2-carboxylic acid derivatives and methods of treatment of metabolic-related disorders thereof” (Arena Pharmaceuticals, Inc., priority 2003, dated 2010).

Tested on: free fatty acid production
Assay: Inhibition of free fatty-acid production, in vivo, in catheterized male rats (NEFA assay on serum)
Design: species or system Sprague-Daly Rats
Details: food deprived catheterized rats, IP administration at various concentrations, FIG. 2A/2B
Method: Inhibition of Free Fatty-Acid Production, In Vivo, in Catheterized Male Sprague-Daly Rats
Non-esterified free-fatty acid (NEFA) assays were done on serum derived from live, freely moving rats. Jugular vein catheters were surgically implanted into the jugular veins and the animals were allowed to recover at least 48 hr post surgery. Food was removed from the animals approximately 16 hours prior to the assay. A draw of ˜200 μl blood was pulled from the catheter and represents the baseline NEFA serum sample. Drug was administered intra-peritoneally (IP) at various concentrations to individual rats and then ˜200 μl blood draws were pulled from the catheter at the indicated time points for further NEFA analysis. NEFA assays were performed according to the manufacturer's specifications (Wako Chemicals, USA; NEFA C) and free fatty acid concentrations were determined via regression analysis of a known standard curve (range of known free fatty acids). Data was analyzed using Excel and PrismGraph.

| SMILES | inhibition of plasma free fatty acid (NEFA) |
| --- | --- |
| CC1(C2=CCCCC2)OC(C(=O)O)=CC1=O (racemic) [Compound 1, 5-Cyclohex-1-enyl-5-methyl-4-oxo-4,5-dihydro-furan-2-carboxylic acid] | able to inhibit free fatty acid production to the same extent, at similar doses and within the same time-frame as compared to nicotinic acid |
| O=C(O)c1cccnc1 [nicotinic acid, pyridine-3-carboxylic acid] | inhibiting plasma free fatty acid concentrations |
